From PubChem BioAssay (NCI) come the findings set out here.

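The compound was tested at five concentrations on cells cultured in 96-well plates, with a 48-hour exposure period. TGI: total growth inhibition.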

The subject of one assay is NCI-H226 lung. The assay can be described thus: NCI-60 cell line screen, 48 h.
In turn, `NC(=Nc1ccccc1Cl)c1ccccc1N` registered a TGI above 100 µM.
On the same count and under the same terms, the figure for `CCCCCCCC(CC(=O)NC(CO)C(=O)NC(CO)CC(C)C)OC(=O)CC(CCCCCCC)OC(=O)CC(CCCCCCC)OC1OC(C)C(O)C(OC2OC(C)C(OC(C)=O)C(O)C2O)C1O` (centres undefined) is 35.5 µM.

Another assay has as its system OVCAR-8 ovarian. The assay can be described thus: NCI-60 cell line screen, 48 h.
For the molecule `O=C1CS(=O)(=O)C(c2cccc(Oc3ccccc3)c2)N1c1ccc(Cl)cc1` (centres undefined), the TGI was 47.8 µM.
Molecule `CC1C2CC(C(S(=O)(=O)O)C2=O)C1(C)C` (centres undefined) yielded a TGI above 100 µM.
In the case of `Cc1n(CC(C)C)c2c([n+]1C)C(=O)c1ccccc1C2=O`, the TGI worked out at 0.937 µM.
The same measure, in the same setting: the figure for `Cc1c(-c2ccccc2)cc(O)c2nc3ccccc3n12` is above 100 µM; for `Cc1ccc(C(=O)O)c(/C=C2\Cc3ccc(C)cc3C2=O)c1` it is above 100 µM; for `C=C(CCOC)CCC1CCCCC(CN(C)C)C1=O` (centres undefined) it is above 100 µM.
The same measure, in the same setting: the figure for `COc1ccc(/C=C2\N=C(N3CCCCC3)NC2=O)cc1` is above 100 µM; for `NC(N)=NS(=O)(=O)c1ccc(NNc2c3ccccc3nc3ccccc23)cc1` it is 31.1 µM; for `COc1cc2c(cc1OCCCCCCCCCCN1C(=O)c3cccc4cccc(c34)C1=O)N=C[C@@H]1CCCN1C2=O` it is 24.7 µM.
Still for that read-out and setting: the figure for `O=C(NC1=C(Cl)C(=O)c2ccccc2C1=O)c1ccccc1` is above 100 µM; for `COc1ccc(Cn2c(=O)c(OC)c(C)c3cc4ccccc4cc32)cc1` it is above 100 µM.
For `N#Cc1c(-c2ccc(Cl)cc2)c2c(n(C3OC(CO)C(O)C(O)C3O)c1=S)CCCC2` (centres undefined), the TGI is above 100 µM.
On the same count and under the same terms, the figure for `COC(=O)C1Cc2cc3c(cc2C1=O)CCC3` (centres undefined) is above 100 µM; for `Cc1ccc2c(ccc(/C=C/c3ccc(O)c4ncccc34)[n+]2C)c1` it is 24 µM; for `CCOC(=O)c1ccc(N=C/C=C(\Nc2ccc(C(=O)OCC)cc2)C23CC4CC(CC(C4)C2)C3)cc1` it is above 100 µM.
The same measure, in the same setting: the figure for `CC(=O)SCCC(NC(=S)Nc1ccccc1)P(=O)(Oc1ccccc1)Oc1ccccc1` (centres undefined) is above 100 µM; for `NC(=Nc1ccccc1Cl)c1ccccc1N` it is above 100 µM.
As to `CCCCCCCC(CC(=O)NC(CO)C(=O)NC(CO)CC(C)C)OC(=O)CC(CCCCCCC)OC(=O)CC(CCCCCCC)OC1OC(C)C(O)C(OC2OC(C)C(OC(C)=O)C(O)C2O)C1O` (centres undefined), the TGI is 23.3 µM.

The next assay relates to SF-268 CNS. The assay is described as follows: NCI-60 cell line screen, 48 h.
On to `O=C1CS(=O)(=O)C(c2cccc(Oc3ccccc3)c2)N1c1ccc(Cl)cc1` (centres undefined), for which the TGI was above 100 µM.
On the same count and under the same terms, to `CC1C2CC(C(S(=O)(=O)O)C2=O)C1(C)C` (centres undefined) belongs above 100 µM; to `Cc1n(CC(C)C)c2c([n+]1C)C(=O)c1ccccc1C2=O`, 0.155 µM; to `Cc1ccc(C(=O)O)c(/C=C2\Cc3ccc(C)cc3C2=O)c1`, above 100 µM.
As to `C=C(CCOC)CCC1CCCCC(CN(C)C)C1=O` (centres undefined), the TGI was above 100 µM.
Still for that read-out and setting: to `COc1ccc(/C=C2\N=C(N3CCCCC3)NC2=O)cc1` belongs above 100 µM; to `NC(N)=NS(=O)(=O)c1ccc(NNc2c3ccccc3nc3ccccc23)cc1`, 34 µM.
Same read-out and setting: the figure for `COc1cc2c(cc1OCCCCCCCCCCN1C(=O)c3cccc4cccc(c34)C1=O)N=C[C@@H]1CCCN1C2=O` is 37.3 µM.
Same read-out and setting: to `O=C(NC1=C(Cl)C(=O)c2ccccc2C1=O)c1ccccc1` belongs above 100 µM; to `COc1ccc(Cn2c(=O)c(OC)c(C)c3cc4ccccc4cc32)cc1`, above 100 µM.
In turn, `N#Cc1c(-c2ccc(Cl)cc2)c2c(n(C3OC(CO)C(O)C(O)C3O)c1=S)CCCC2` (centres undefined) registered a TGI above 100 µM.
`COC(=O)C1Cc2cc3c(cc2C1=O)CCC3` (centres undefined) returned a TGI above 100 µM.
On the same count and under the same terms, to `Cc1ccc2c(ccc(/C=C/c3ccc(O)c4ncccc34)[n+]2C)c1` belongs 22 µM; to `CCOC(=O)c1ccc(N=C/C=C(\Nc2ccc(C(=O)OCC)cc2)C23CC4CC(CC(C4)C2)C3)cc1`, above 100 µM; to `CC(=O)SCCC(NC(=S)Nc1ccccc1)P(=O)(Oc1ccccc1)Oc1ccccc1` (centres undefined), above 100 µM.
The molecule `NC(=Nc1ccccc1Cl)c1ccccc1N` gave a TGI above 100 µM.
The same measure, in the same setting: to `CCCCCCCC(CC(=O)NC(CO)C(=O)NC(CO)CC(C)C)OC(=O)CC(CCCCCCC)OC(=O)CC(CCCCCCC)OC1OC(C)C(O)C(OC2OC(C)C(OC(C)=O)C(O)C2O)C1O` (centres undefined) belongs 23.3 µM.

The test system of another assay is SK-MEL-5 melanoma. The assay is described as follows: NCI-60 cell line screen, 48 h.
Turning to `O=C1CS(=O)(=O)C(c2cccc(Oc3ccccc3)c2)N1c1ccc(Cl)cc1` (centres undefined), the TGI amounted to 26.3 µM.
Same read-out and setting: to `Cc1n(CC(C)C)c2c([n+]1C)C(=O)c1ccccc1C2=O` belongs 0.139 µM; to `Cc1c(-c2ccccc2)cc(O)c2nc3ccccc3n12`, above 100 µM; to `Cc1ccc(C(=O)O)c(/C=C2\Cc3ccc(C)cc3C2=O)c1`, above 100 µM.
Take `C=C(CCOC)CCC1CCCCC(CN(C)C)C1=O` (centres undefined): the TGI is above 100 µM.
Same read-out and setting: the figure for `NC(N)=NS(=O)(=O)c1ccc(NNc2c3ccccc3nc3ccccc23)cc1` is 22.3 µM; for `COc1cc2c(cc1OCCCCCCCCCCN1C(=O)c3cccc4cccc(c34)C1=O)N=C[C@@H]1CCCN1C2=O` it is 22.8 µM.
For `O=C(NC1=C(Cl)C(=O)c2ccccc2C1=O)c1ccccc1`, the TGI is 78.9 µM.
In turn, `COc1ccc(Cn2c(=O)c(OC)c(C)c3cc4ccccc4cc32)cc1` gave a TGI of 22.2 µM.
Same read-out and setting: the figure for `N#Cc1c(-c2ccc(Cl)cc2)c2c(n(C3OC(CO)C(O)C(O)C3O)c1=S)CCCC2` (centres undefined) is 80.3 µM; for `COC(=O)C1Cc2cc3c(cc2C1=O)CCC3` (centres undefined) it is above 100 µM.
Molecule `Cc1ccc2c(ccc(/C=C/c3ccc(O)c4ncccc34)[n+]2C)c1` gave a TGI of 35.3 µM.
The molecule `CCOC(=O)c1ccc(N=C/C=C(\Nc2ccc(C(=O)OCC)cc2)C23CC4CC(CC(C4)C2)C3)cc1` had a TGI above 100 µM.
Same read-out and setting: to `NC(=Nc1ccccc1Cl)c1ccccc1N` belongs above 100 µM; to `CCCCCCCC(CC(=O)NC(CO)C(=O)NC(CO)CC(C)C)OC(=O)CC(CCCCCCC)OC(=O)CC(CCCCCCC)OC1OC(C)C(O)C(OC2OC(C)C(OC(C)=O)C(O)C2O)C1O` (centres undefined), 21.8 µM.

The next assay has as its system SN12C renal. The assay can be described thus: NCI-60 cell line screen, 48 h.
`O=C1CS(=O)(=O)C(c2cccc(Oc3ccccc3)c2)N1c1ccc(Cl)cc1` (centres undefined): the TGI was 57.7 µM.
On to `CC1C2CC(C(S(=O)(=O)O)C2=O)C1(C)C` (centres undefined), for which the TGI is above 100 µM.
`Cc1n(CC(C)C)c2c([n+]1C)C(=O)c1ccccc1C2=O` yielded a TGI of 0.0671 µM.
The molecule `Cc1c(-c2ccccc2)cc(O)c2nc3ccccc3n12` gave a TGI above 100 µM.
Molecule `Cc1ccc(C(=O)O)c(/C=C2\Cc3ccc(C)cc3C2=O)c1` registered a TGI above 100 µM.
On the same count and under the same terms, the figure for `C=C(CCOC)CCC1CCCCC(CN(C)C)C1=O` (centres undefined) is above 100 µM.
Still for that read-out and setting: to `COc1ccc(/C=C2\N=C(N3CCCCC3)NC2=O)cc1` belongs above 100 µM; to `NC(N)=NS(=O)(=O)c1ccc(NNc2c3ccccc3nc3ccccc23)cc1`, 35.6 µM; to `COc1cc2c(cc1OCCCCCCCCCCN1C(=O)c3cccc4cccc(c34)C1=O)N=C[C@@H]1CCCN1C2=O`, 18.3 µM.
On the same count and under the same terms, to `O=C(NC1=C(Cl)C(=O)c2ccccc2C1=O)c1ccccc1` belongs above 100 µM; to `COc1ccc(Cn2c(=O)c(OC)c(C)c3cc4ccccc4cc32)cc1`, 42.6 µM.
`N#Cc1c(-c2ccc(Cl)cc2)c2c(n(C3OC(CO)C(O)C(O)C3O)c1=S)CCCC2` (centres undefined): the TGI was above 100 µM.
Molecule `COC(=O)C1Cc2cc3c(cc2C1=O)CCC3` (centres undefined) came in with a TGI above 100 µM.
Molecule `Cc1ccc2c(ccc(/C=C/c3ccc(O)c4ncccc34)[n+]2C)c1` came in with a TGI of 35.6 µM.
`CCOC(=O)c1ccc(N=C/C=C(\Nc2ccc(C(=O)OCC)cc2)C23CC4CC(CC(C4)C2)C3)cc1` had a TGI above 100 µM.
Still for that read-out and setting: the figure for `CC(=O)SCCC(NC(=S)Nc1ccccc1)P(=O)(Oc1ccccc1)Oc1ccccc1` (centres undefined) is above 100 µM.
`CCCCCCCC(CC(=O)NC(CO)C(=O)NC(CO)CC(C)C)OC(=O)CC(CCCCCCC)OC(=O)CC(CCCCCCC)OC1OC(C)C(O)C(OC2OC(C)C(OC(C)=O)C(O)C2O)C1O` (centres undefined) had a TGI of 18.6 µM.
